From US11840686B2, “Modulation of prekallikrein (PKK) expression” (Ionis Pharmaceuticals, Inc., priority 2013, dated 2023) come the findings set out here.

Strand notation (5' to 3'): a small letter for the sugar, then the base; units joined by * are phosphorothioate-linked, units joined directly phosphodiester-linked; [ ] holds rarer units or linkages, { } end groups; capitals alone tell only the bases. e = 2'-O-(2-methoxyethyl) (MOE); [5mC] = 5-methylcytosine; d = 2'-deoxy (DNA)

The subject of the data set is human PKK mRNA. Description: Antisense inhibition of human PKK mRNA in HepaRG cells, 5,000 nM (Example 2). Format: cell-based. Particulars: HepaRG cells, 5,000 nM antisense oligonucleotide; 5-10-5 gapmers; Table 16. The method, boiled down: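 Percent inhibition of PKK mRNA is relative to untreated control, with qRT-PCR (probe set RTS3454) values adjusted to total RNA by RIBOGREEN. Oligonucleotides, fully phosphorothioate 2′-MOE gapmers, were delivered at 5,000 nM by electroporation into 20,000 HepaRG cells/well for about 24 h.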
As to “547697 (antisense eT*e[5mC]*eA*e[5mC]*eT*dG*dT*d[5mC]*d[5mC]*dT*dA*dT*dA*dA*d[5mC]*eT*eA*eT*eT*eA) [compound 547697]”, the “% inhibition” value is recorded as 63%.
Turning to “547698 (antisense eA*e[5mC]*e[5mC]*eT*eA*dT*dA*dA*d[5mC]*dT*dA*dT*dA*dA*d[5mC]*eA*eA*eT*eA*eT) [compound 547698]”, the “% inhibition” value is 0%.
Turning to “547699 (antisense eT*eA*e[5mC]*e[5mC]*eT*dA*dT*dA*dA*d[5mC]*dT*dA*dT*dA*dA*e[5mC]*eA*eA*eT*eA) [compound 547699]”, the “% inhibition” value was determined as 10%.
To “547700 (antisense eG*eT*eA*e[5mC]*e[5mC]*dT*dA*dT*dA*dA*d[5mC]*dT*dA*dT*dA*eA*e[5mC]*eA*eA*eT) [compound 547700]” belongs 0%; to “547701 (antisense e[5mC]*eA*eT*e[5mC]*eA*d[5mC]*dT*dG*dT*dA*d[5mC]*d[5mC]*dT*dA*dT*eA*eA*e[5mC]*eT*eA) [compound 547701]”, 49%.
“547702 (antisense eA*e[5mC]*eA*eT*e[5mC]*dA*d[5mC]*dT*dG*dT*dA*d[5mC]*d[5mC]*dT*dA*eT*eA*eA*e[5mC]*eT) [compound 547702]”: the “% inhibition” value came to 44%.
Consider “547703 (antisense e[5mC]*eA*eA*e[5mC]*eA*dT*d[5mC]*dA*d[5mC]*dT*dG*dT*dA*d[5mC]*d[5mC]*eT*eA*eT*eA*eA) [compound 547703]”, for which the “% inhibition” value is reported as 25%.
Turning to “547704 (antisense eA*e[5mC]*eA*eT*e[5mC]*dT*dT*dG*dT*d[5mC]*dA*dT*dT*dA*dA*e[5mC]*eA*eT*e[5mC]*e[5mC]) [compound 547704]”, the “% inhibition” value is 61%.
Turning to “547705 (antisense eG*e[5mC]*eA*e[5mC]*e[5mC]*d[5mC]*dA*dA*dT*dA*d[5mC]*dA*dG*dG*dG*e[5mC]*e[5mC]*eA*eG*eG) [compound 547705]”, the “% inhibition” value turned out to be 69%.
As for “547706 (antisense eT*eG*e[5mC]*e[5mC]*eT*d[5mC]*d[5mC]*dT*dG*dG*d[5mC]*dA*dG*d[5mC]*d[5mC]*eT*eT*e[5mC]*eA*eA) [compound 547706]”, the figure is 73%.
As to “547707 (antisense eT*eG*eA*eA*eA*dA*dG*d[5mC]*d[5mC]*dA*d[5mC]*dG*d[5mC]*d[5mC]*d[5mC]*eT*eT*eA*eG*e[5mC]) [compound 547707]”, the “% inhibition” value came to 32%.
As for “547708 (antisense eG*e[5mC]*e[5mC]*eA*eG*dG*dA*dG*dA*d[5mC]*dA*dG*d[5mC]*d[5mC]*d[5mC]*eT*eA*e[5mC]*eT*e[5mC]) [compound 547708]”, the “% inhibition” value is recorded as 67%.
As to “547709 (antisense eA*eG*e[5mC]*e[5mC]*e[5mC]*dA*dA*dT*dG*dT*d[5mC]*d[5mC]*dT*dA*dA*e[5mC]*e[5mC]*eT*eG*eT) [compound 547709]”, the “% inhibition” value is given as 76%.
With “547710 (antisense eT*eG*e[5mC]*eG*eG*dT*dT*dA*dT*dA*dT*dG*dG*dG*d[5mC]*eT*eG*eA*eA*eG) [compound 547710]”, the “% inhibition” value was found to be 85%.
As for “547711 (antisense e[5mC]*e[5mC]*eT*eT*eT*dA*dG*d[5mC]*d[5mC]*dA*d[5mC]*dT*d[5mC]*d[5mC]*dT*e[5mC]*eT*eT*eG*e[5mC]) [compound 547711]”, the figure is 45%.
“547713 (antisense e[5mC]*eT*e[5mC]*eA*eA*dT*dG*d[5mC]*d[5mC]*dA*d[5mC]*d[5mC]*d[5mC]*dT*dT*eT*e[5mC]*e[5mC]*e[5mC]*e[5mC]) [compound 547713]”: the “% inhibition” value was determined as 37%.
“547714 (antisense e[5mC]*eT*eG*eT*e[5mC]*dT*dA*dA*d[5mC]*dT*dG*dG*d[5mC]*d[5mC]*dT*eG*eG*e[5mC]*eT*eG) [compound 547714]”: the “% inhibition” value came to 19%.
Consider “547715 (eG*eG*eT*e[5mC]*eA*dG*dA*dA*dG*dG*d[5mC]*d[5mC]*dT*d[5mC]*dT*eT*eA*eT*eT*e[5mC]; antisense) [compound 547715]”, for which the “% inhibition” value was found to be 21%.

By % inhibition is commonly meant the share of the control response that was lost under treatment. Low values mean a weak effect, high ones a strong effect.
